Each structure is given as a SMILES string. Where two headings read alike, the source gives them in different places.

One molecule from patent publication EP0277849A1, “Incorporation of one or more lipophilic, active principles into lipoproteins, lipoproteins obtained and pharmaceutical compositions containing them” (IRE-CELLTARG S.A., priority 1987, dated 1988) can be followed below.

Data set [1] deals with C. tropicalis. Kind of data set: Extracellular infection in the infected-macrophage model. The class given is cell-based. To be noted: Candida tropicalis, read-out: CIext50^(a). Here is the method: (§1) La lignée continue de macrophages J77468 d'origine murine provient d'un clonage de la souche J774 ATCC, et est cultivée en milieu RPMI 1640 additionné de glutamine 2 mM, 10% de sérum de veau foetal (décomplémenté 60 min. à 56°) et de 10 mM Hepes (pH 7.2). Une suspension de 5 10^6 cellules/ml sont infectées avec une culture de Candida tropicalis (5 10^5 levures/ml) provenant d'une culture de nuit dans de la casitone. Le milieu d'infection utilisé est du RPMI contenant 2 % de sérum de veau nouveau-né et 10 mM Hepes (pH 7.2).
(§2) Après 3 h d'incubation à 37° dans un mélange d'air 10 % C02, la phagocytose des levures est complète. La suspension cellulaire macrophages-Candida est centrifugée, lavée abondamment et répartie à raison de 10^5 macrophages infectés/alvéole dans des boîtes à 24 alvéoles contenant une lamelle de verre (diamètre 14 mm). Après 3 h de phagocytose (To), sur 100 macrophages, 32 contiennent de 1 à 6 Candida/macrophage, l'infection moyenne étant de 2 Candida/macrophage.
(§3) Toutes les levures ont été phagocytées sauf rares exceptions (estimation au microscope optique après coloration au May-Grünwald Giemsa). Douze concentrations différentes des drogues de référence et des drogues encapsulées dans les LDL sont distribuées dans les boîtes contenant les macrophages infectés.
(§4) L'évaluation de l'efficacité d'une drogue se fait à chaque concentration. Testées après 18 h d'incubation (37°, dans un mélange air-10 % C02), les levures se multiplient d'abord au sein des cellules hôtes, puis dans le milieu extracellulaire. Le taux de macrophages infectés est alors de 75 % chez les témoins. Une cellule peut contenir de 1 à plus de 20 Candida/cellule, la majorité contient de 2 à 6 levures/cellule. Le milieu de culture contient 10^8 Candida extracellulaires/ml (comptage dans une cellule de Burker).
L'action des AF encapsulés sur une infection extracellulaire peut être évaluée de deux manières : d'une part en déterminant le nombre de Candida extracellulaires dans un modèle d'infection intracellulaire (voir VIII § 1.1.), d'autre part en mesurant la concentration minimale inhibitrice (CMI) de ces composés par la méthode de dilutions successives dans des boîtes à multipuits (milieu RPMI).

A short description of data set [2]: Incorporation of antifungal agent into LDL by NaDoc dissociation-reconstitution. It counts as physicochemical. To be noted: 1,6 mg LDL, 482 µg of agent, dialysis. As for the experimental part: On ajoute à 1,6 mg de LDL préalablement dialysées contre le tampon C, 10 mg de NaDoc solide et on laisse réagir 30 minutes à température ambiante. On ajoute à la préparation 2,8 ml d'une solution NaDoc 20 mM, Na2COs 50 mM, NaCi 50 mM, pH 10 contenant 482 µg de CT4000A ou 482 µg de CT040013. Les échantillons sont dialysés à 4° C contre trois fois 1 litre de tampon B.
Le pourcentage de récupération en LDL, en CT040013 et en NaDoc est déterminé au terme du processus de reconstitution (figure 13).
Il est également possible de rapporter la masse de substance incorporée par mole de LDL. Les résultats obtenus pour le CT04000A et la CT040013 sont respectivement de 0,4 et de 208 moles incorporés par mole de LDL.

Data set [3] deals with Candida tropicalis. Kind of data set: Intracellular infection model: J77468 macrophages infected with Candida tropicalis. To be noted: 2 % de sérum de veau foetal. The class given is cell-based. As for the experimental part:
as §1, §2, §3, §4
L'activité d'une drogue encapsulée ou non dans les LDL ou Ac-LDL par rapport à un antifongique de référence, le kétoconazole (K), est déterminé par la concentration micromolaire en drogue réduisant de 50 % le nombre de macrophages infectés par les Candida (=C150). Signalons que parallèlement à la réduction au cours du traitement, du taux de cellules infectées, le nombre de Candida par macrophage infecté diminue fortement (de 1 à 3 levures/cellule).
Le milieu de culture est RPMI + glutamine 2 mM + Hepes 10 mM + 2 % de sérum de veau foetal.

Take `CCCCCCCC/C=C\CCCCCCCC(=O)N1CCN(c2ccc(OC[C@H]3CO[C@](Cn4ccnc4)(c4ccc(Cl)cc4Cl)O3)cc2)CC1` [KO1]: the IC50 in data set [1] (addition de 2 % Pl.H. (plasma humain)) turned out to be 50.1 µM; in data set [1] (addition de 2 % SVF (sérum de veau foetal)), 8.31 µM; in data set [3] (Candida tropicalis, Macrophage, micromolar concentration reducing infected macrophages by 50 %, 18 h, read-out: CI50 (the source's name)) it was 85.3 µM. Also, the “moles incorporés par mole de LDL” value in data set [2] was 208 moles incorporés par mole de LDL. Further, the “CI50 K/AF” value in data set [3] is reported as 0,6.
